pIC50: −log10 of the molar value. Where “and” joins values, the source holds several entries; their conditions need not be identical. Equal entries are not always repeated. Each block holds one molecule with its values, some of them ahead of it.
Test system: 233499-124-R-J3-PDC complex spheroid viability
Experiment: Anticancer human tumor 233499-124-R-J3-PDC patient-derived colon adenocarcinoma cell line growth inhibition [CLK]
Settings: for viability, T/C: stronger effect = lower value
Text: A high-throughput screen of multi-cell type tumor spheroids was designed to identify active combinations of […] and targeted small molecules. Complex spheroids include a stromal component modeled by human endothelial cells (HUVEC) and fibroblasts modeled by human mesenchymal stem cells (MSCs). The concentration ranges selected for each drug and investigational agent were based upon clinically achievable concentrations if the clinical Cmax of the agent was known.
Compounds. The drugs and investigational agents: cirtuvivint (SM08502; NSC835563), CC-671 (NSC850746), vemurafenib (NSC761431), tapotoclax (NSC804041), sotorasib (NSC818433), adagrasib (NSC831453), MRTX-1133 (NSC836407), BAY2416964 (NSC825713), copanlisib (NSC816437), inavolisib (NSC800729), abemaciclib (NSC768073), osimertinib (NSC779217), entinostat (NSC756642), eltanexor (KPT-8602, NSC794443), venetoclax (NSC766270), ceralasertib (NSC777638), bortezomib (NSC756655), olaparib (NSC753686), talazoparib (NSC767125), alisertib (NSC759677), peposertib (NSC802822), gemcitabine (NSC613327), 5-fluorouracil (NSC19893), SN-38 (NSC673596), oxaliplatin (NSC266046), paclitaxel (NSC125973), and doxorubicin (NSC123127), were obtained from the National Cancer Institute (NCI) Developmental Therapeutics Program Chemical Repository. The FDA-approved anticancer drug set is available from the Developmental Therapeutics Program at https://dtp.cancer.gov/organization/dscb/obtaining/available plates.htm. […] The stock solutions were prepared in dimethyl sulfoxide (DMSO, Sigma-Aldrich, St. Louis, MO, cat. D2650), except for the platinum complexes which were prepared in saline (Quality Biological, Gaithersburg, MD, cat. 114-055-101), at 800-fold the tested concentration and stored at -70 degrees C prior to their use. All drugs and investigational agents were tested over a range starting from a high concentration at or near the clinical Cmax and decreasing in half-log increments. If the clinical Cmax for an agent had not been determined, the highest concentration tested was 10 microM.
Cell Culture. All cells were maintained in an incubator at 37 degrees C and 5% CO2 with 95% humidity. The PDC lines were cultured according to standard operating procedures established by the NCI PDMR. Briefly, all PDCs were thawed and cultured in Matrigel-coated flasks prepared with a working solution of 1X Ham's F-12 nutrient mix, without supplementation (Invitrogen, Waltham, MA, cat. 11765054), 100 U/mL penicillin-streptomycin (Invitrogen, cat. 15140122), and 2.5% Matrigel (Corning Inc., Corning, NY, cat. 354248) for the first three passages. The 947758-054-R-J2-PDC line was cultured in 6B/Colon 1A media, which includes advanced DMEM/F-12 (Thermo Fisher Scientific, cat. 12634028), 10 mM HEPES (Thermo Fisher Scientific, cat. 15630080), 1X GlutaMAX supplement (Thermo Fisher Scientific, cat. 35050061), 0.1 mg/mL primocin (InvivoGen, cat. ant-pm-2), 10% defined fetal bovine serum, heat inactivated (HyClone Laboratories Inc., cat. SH30070.03HI), 1.25 mM N-Acetyl-L-cysteine (Sigma-Aldrich, cat. A9165), 10 mM nicotinamide (Sigma-Aldrich, cat. N0636), 1X B-27 supplement (Thermo Fisher Scientific, cat. 17504044), 1X N-2 supplement (Thermo Fisher Scientific, cat. 17502048), and 10 microM Y-27632 dihydrochloride (Tocris Bioscience, cat. 1254). The 876862-298-R-J1-PDC was cultured in 6E media, which includes all 6B/Colon 1A media components plus 50% L-WRN conditioned media (ATCC, cat. CRL-3276), 50 ng/mL recombinant human EGF recombinant protein (hEGF; Thermo Fisher Scientific, cat. PHG0311), 10 ng/mL recombinant human fibroblast growth factor 10 (hGFG-10; PeproTech, cat. 100-26), 1 ng/mL recombinant human fibroblast growth factor 2 (hFGF-2; PeproTech, cat. 100-18B), and 1 µM prostaglandin E2 (PGE2; Tocris, cat. 2296). The 227483-062-R1-J1-PDC line was cultured in Panc media, containing all 6E components except hFGF-2, with the addition of 500 nM SB-431542 (Selleckchem, cat. S1067) and 10 nM gastrin (Tocris, cat. 3006). […]

[1] = curve of first compound, second compound 0.0316 µM
[2] = curve of first compound, second compound 0.1 µM
[3] = curve of first compound, second compound 0.316 µM
[4] = curve of first compound, second compound 1 µM
[5] = curve of first compound, second compound 3.16 µM
[6] = curve of first compound, second compound 10 µM
[7] = second compound 0.0316 µM, first compound 0.0316 µM
[8] = second compound 0.0316 µM, first compound 0.1 µM
[9] = second compound 0.0316 µM, first compound 0.316 µM
[10] = second compound 0.0316 µM, first compound 1 µM
[11] = second compound 0.0316 µM, first compound 3.16 µM
[12] = second compound 0.0316 µM, first compound 10 µM
[13] = second compound 0.1 µM, first compound 0.0316 µM
[14] = second compound 0.1 µM, first compound 0.1 µM
[15] = second compound 0.1 µM, first compound 0.316 µM
[16] = second compound 0.1 µM, first compound 1 µM
[17] = second compound 0.1 µM, first compound 3.16 µM
[18] = second compound 0.1 µM, first compound 10 µM
[19] = second compound 0.316 µM, first compound 0.0316 µM
[20] = second compound 0.316 µM, first compound 0.1 µM
[21] = second compound 0.316 µM, first compound 0.316 µM
[22] = second compound 0.316 µM, first compound 1 µM
[23] = second compound 0.316 µM, first compound 3.16 µM
[24] = second compound 0.316 µM, first compound 10 µM
[25] = second compound 1 µM, first compound 0.0316 µM
[26] = second compound 1 µM, first compound 0.1 µM
[27] = second compound 1 µM, first compound 0.316 µM
[28] = second compound 1 µM, first compound 1 µM
[29] = second compound 1 µM, first compound 3.16 µM
[30] = second compound 1 µM, first compound 10 µM
[31] = second compound 3.16 µM, first compound 0.0316 µM
[32] = second compound 3.16 µM, first compound 0.1 µM
[33] = second compound 3.16 µM, first compound 0.316 µM
[34] = second compound 3.16 µM, first compound 1 µM
[35] = second compound 3.16 µM, first compound 3.16 µM
[36] = second compound 3.16 µM, first compound 10 µM
[37] = second compound 10 µM, first compound 0.0316 µM
[38] = second compound 10 µM, first compound 0.1 µM
[39] = second compound 10 µM, first compound 0.316 µM
[40] = second compound 10 µM, first compound 1 µM
[41] = second compound 10 µM, first compound 3.16 µM
[42] = second compound 10 µM, first compound 10 µM
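Also: spheroids exposed to the drug combinations for seven days.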
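For viability, T/C in this document: percent viability relative to DMSO vehicle control wells taken as 100%.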

pIC50 [1]: 6.85
pIC50 [2]: < 5.00
pIC50 [3]: < 5.00
pIC50 [4]: < 5.00
pIC50 [5]: < 5.00
pIC50 [6]: < 5.00
Structure (SMILES): CC(=O)O[C@H]1C(=O)[C@@]2(C)[C@H]([C@H](OC(=O)c3ccccc3)[C@]3(O)C[C@H](OC(=O)[C@H](O)[C@@H](NC(=O)c4ccccc4)c4ccccc4)C(C)=C1C3(C)C)[C@]1(OC(C)=O)CO[C@@H]1C[C@@H]2O + CNC(=O)c1ccc(Nc2nc(OC3CCCC3)c3c(-c4ccc5nc(C)oc5c4)c[nH]c3n2)c(OC)c1
viability, T/C [7]: 80%
viability, T/C [8]: 59.4%
viability, T/C [9]: 18.2%
viability, T/C [10]: 21.5%
viability, T/C [11]: 31.4%
viability, T/C [12]: 37.7%
viability, T/C [13]: 81.2%
viability, T/C [14]: 66%
viability, T/C [15]: 50.7%
viability, T/C [16]: 78.5%
viability, T/C [17]: 72.9%
viability, T/C [18]: 66.5%
viability, T/C [19]: 67.9%
viability, T/C [20]: 81%
viability, T/C [21]: 84.8%
viability, T/C [22]: 90.6%
viability, T/C [23]: 78.8%
viability, T/C [24]: 68.4%
viability, T/C [25]: 91.2%
viability, T/C [26]: 85.9%
viability, T/C [27]: 77.5%
viability, T/C [28]: 72.5%
viability, T/C [29]: 96.3%
viability, T/C [30]: 66.7%
viability, T/C [31]: 77%
viability, T/C [32]: 87.8%
viability, T/C [33]: 89.5%
viability, T/C [34]: 90.5%
viability, T/C [35]: 83.3%
viability, T/C [36]: 74.2%
viability, T/C [37]: 67.5%
viability, T/C [38]: 82.3%
viability, T/C [39]: 79.1%
viability, T/C [40]: 79%
viability, T/C [41]: 81.1%
viability, T/C [42]: 85.8%

Structure (SMILES): C=C(F)C(=O)N1CCN(c2nc(OCC3CCCN3C)nc3c2CCN(c2cccc4cccc(Cl)c24)C3)CC1CC#N (stereo not given) + CN1CCN(c2cc(C(=O)Nc3cc4cc(-c5cnn(C)c5)ccc4cn3)ccn2)CC1
pIC50 [1]: < 5.00
pIC50 [2]: < 5.00
pIC50 [3]: 5.02
pIC50 [4]: > 7.50
pIC50 [5]: > 7.50
pIC50 [6]: > 7.50
viability, T/C [7]: 95.2%
viability, T/C [8]: 104%
viability, T/C [9]: 91.5%
viability, T/C [10]: 100%
viability, T/C [11]: 94.1%
viability, T/C [12]: 84%
viability, T/C [13]: 99.6%
viability, T/C [14]: 90.9%
viability, T/C [15]: 103%
viability, T/C [16]: 96%
viability, T/C [17]: 95.2%
viability, T/C [18]: 85.1%
viability, T/C [19]: 93.6%
viability, T/C [20]: 90.3%
viability, T/C [21]: 82.9%
viability, T/C [22]: 98.6%
viability, T/C [23]: 87.8%
viability, T/C [24]: 48.6%
viability, T/C [25]: 1.94%
viability, T/C [26]: 3.93%
viability, T/C [27]: 4.58%
viability, T/C [28]: 0.73%
viability, T/C [29]: 5.08%
viability, T/C [30]: 0.83%
viability, T/C [31]: 0.56%
viability, T/C [32]: 0.88%
viability, T/C [33]: 0.69%
viability, T/C [34]: 0.56%
viability, T/C [35]: 0.42%
viability, T/C [36]: 0.12%
viability, T/C [37]: 0.42%
viability, T/C [38]: 0.74%
viability, T/C [39]: 0.44%
viability, T/C [40]: 0.95%
viability, T/C [41]: 0.32%
viability, T/C [42]: 0.72%

pIC50 (curve of compound): 8.30
Structure (SMILES): CC(C)CC(NC(=O)C(Cc1ccccc1)NC(=O)c1cnccn1)B(O)O (stereo not given)
viability, T/C (compound 0.000949 µM): 101% and 106%
viability, T/C (compound 0.003 µM): 88.8% and 88.5%
viability, T/C (compound 0.00949 µM): 0.33% and 0.18%
viability, T/C (compound 0.03 µM): 0.31% and 0.22%
viability, T/C (compound 0.0949 µM): 0.13% and 0.2%
viability, T/C (compound 0.3 µM): 0.14% and 0.2%

Structure (SMILES): CC1COCCN1c1cc(C2(S(C)(=N)=O)CC2)nc(-c2ccnc3[nH]ccc23)n1 (stereo not given) + CN1CCN(c2cc(C(=O)Nc3cc4cc(-c5cnn(C)c5)ccc4cn3)ccn2)CC1
pIC50 [1]: < 5.00
pIC50 [2]: < 5.00
pIC50 [3]: 5.16
pIC50 [4]: > 7.50
pIC50 [5]: > 7.50
pIC50 [6]: > 7.50
viability, T/C [7]: 99.9%
viability, T/C [8]: 109%
viability, T/C [9]: 98.3%
viability, T/C [10]: 106%
viability, T/C [11]: 90.3%
viability, T/C [12]: 66.6%
viability, T/C [13]: 96.6%
viability, T/C [14]: 109%
viability, T/C [15]: 103%
viability, T/C [16]: 90.8%
viability, T/C [17]: 75.7%
viability, T/C [18]: 53.6%
viability, T/C [19]: 94.2%
viability, T/C [20]: 93.3%
viability, T/C [21]: 98.9%
viability, T/C [22]: 86.7%
viability, T/C [23]: 71.2%
viability, T/C [24]: 40.5%
viability, T/C [25]: 3.94%
viability, T/C [26]: 1.1%
viability, T/C [27]: 0.55%
viability, T/C [28]: 1.34%
viability, T/C [29]: 1.62%
viability, T/C [30]: 0.81%
viability, T/C [31]: 0.77%
viability, T/C [32]: 0.89%
viability, T/C [33]: 1.57%
viability, T/C [34]: 0.66%
viability, T/C [35]: 0.84%
viability, T/C [36]: 0.92%
viability, T/C [37]: 0.55%
viability, T/C [38]: 0.49%
viability, T/C [39]: 0.53%
viability, T/C [40]: 0.5%
viability, T/C [41]: 0.6%
viability, T/C [42]: 0.44%

pIC50 (curve of compound): < 6.00
Structure (SMILES): CCN1CCN(Cc2ccc(Nc3ncc(F)c(-c4cc(F)c5nc(C)n(C(C)C)c5c4)n3)nc2)CC1
viability, T/C (compound 0.00316 µM): 100% and 102%
viability, T/C (compound 0.01 µM): 86.8% and 96.5%
viability, T/C (compound 0.0316 µM): 98.5% and 88%
viability, T/C (compound 0.1 µM): 93.8% and 104%
viability, T/C (compound 0.316 µM): 94.1% and 98.2%
viability, T/C (compound 1 µM): 102% and 64.3%
